Measurements as given in patent publication US9757353B2, “Methods of inducing anesthesia” (THE REGENTS OF THE UNIVERSITY OF CALIFORNIA, priority 2012, dated 2017).

What was measured:
[1] = target: T1, NMDA (NR1/NR2A) receptors (Rattus norvegicus, UniProt P35439+Q00959); test: Oocyte two-electrode voltage clamp, NMDA receptor currents; format: cell-based; conditions: for NMDA % Direct Effect: drug response without receptor agonist, percent of control agonist peak, saturated drug, mean ± SEM, 5-6 oocytes; for NMDA Drug Response: saturated drug + agonist; for direct effect on NMDA receptors (in words): absence of glutamate and glycine agonist
T1 construct: expressed in transfected cells; host or cells: Xenopus laevis oocytes, injected with in vitro transcribed RNA (1:1), clones a gift from Dr. R. A. Harris
T1 sequence (Q00959 23-1464, other chains not shown): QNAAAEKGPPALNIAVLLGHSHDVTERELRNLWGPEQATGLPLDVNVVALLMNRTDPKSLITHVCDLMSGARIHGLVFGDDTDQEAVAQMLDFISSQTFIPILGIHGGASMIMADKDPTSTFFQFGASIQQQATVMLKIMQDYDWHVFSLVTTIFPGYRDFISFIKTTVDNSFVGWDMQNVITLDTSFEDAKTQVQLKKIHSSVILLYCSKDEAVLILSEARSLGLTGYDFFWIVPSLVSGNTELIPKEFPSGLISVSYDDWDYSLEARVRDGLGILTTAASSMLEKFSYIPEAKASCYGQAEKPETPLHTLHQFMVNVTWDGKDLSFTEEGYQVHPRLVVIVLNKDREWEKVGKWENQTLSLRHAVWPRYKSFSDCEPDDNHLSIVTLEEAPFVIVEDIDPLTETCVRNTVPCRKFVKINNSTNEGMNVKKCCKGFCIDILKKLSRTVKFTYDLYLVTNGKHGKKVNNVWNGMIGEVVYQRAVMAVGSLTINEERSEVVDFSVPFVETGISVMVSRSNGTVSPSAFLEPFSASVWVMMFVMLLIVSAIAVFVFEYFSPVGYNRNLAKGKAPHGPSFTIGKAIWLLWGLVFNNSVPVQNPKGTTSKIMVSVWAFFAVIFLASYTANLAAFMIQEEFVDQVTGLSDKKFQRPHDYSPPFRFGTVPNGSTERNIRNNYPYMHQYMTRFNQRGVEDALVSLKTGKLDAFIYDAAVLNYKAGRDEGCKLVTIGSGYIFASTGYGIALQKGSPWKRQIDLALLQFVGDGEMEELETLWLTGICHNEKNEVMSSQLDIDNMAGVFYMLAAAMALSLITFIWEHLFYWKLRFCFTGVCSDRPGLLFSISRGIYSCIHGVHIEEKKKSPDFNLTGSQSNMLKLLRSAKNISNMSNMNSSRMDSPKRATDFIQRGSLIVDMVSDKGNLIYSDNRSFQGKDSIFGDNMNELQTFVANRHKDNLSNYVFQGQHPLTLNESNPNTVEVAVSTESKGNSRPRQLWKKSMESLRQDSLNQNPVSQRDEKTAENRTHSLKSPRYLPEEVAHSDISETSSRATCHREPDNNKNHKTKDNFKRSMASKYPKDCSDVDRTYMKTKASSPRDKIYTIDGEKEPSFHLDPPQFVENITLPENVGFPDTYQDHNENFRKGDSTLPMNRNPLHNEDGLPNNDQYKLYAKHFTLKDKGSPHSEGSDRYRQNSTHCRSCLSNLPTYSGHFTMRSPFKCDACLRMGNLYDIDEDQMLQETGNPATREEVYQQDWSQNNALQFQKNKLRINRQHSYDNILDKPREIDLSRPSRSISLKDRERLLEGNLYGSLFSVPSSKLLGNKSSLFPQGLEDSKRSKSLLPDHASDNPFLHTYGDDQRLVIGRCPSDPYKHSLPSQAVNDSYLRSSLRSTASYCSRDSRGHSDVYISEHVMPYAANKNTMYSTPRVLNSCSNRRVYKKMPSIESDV
From the text: Methods: GABAA (α1β2γ2s) or NMDA (NR1/NR2A) receptors were expressed in oocytes and studied using standard two-electrode voltage clamp techniques. Hydrocarbons from 14 different organic functional groups were studied at saturated concentrations, and compounds within each group differed only by the carbon number at the ω-position or within a saturated ring. An effect on GABAA or NMDA receptors was defined as a 10% or greater reversible current change from baseline that was statistically different from zero.
Oocyte Collection and Receptor Expression. An ovary from tricaine-anesthetized Xenopus laevis frogs was surgically removed using a protocol approved by the Institutional Animal Care and Use Committee at the University of California, Davis. Following manual disruption of the ovarian lobule septae, the ovary was incubated in 0.2% Type I collagenase (Worthington Biochemical, Lakewood, N.J.) to defolliculate oocytes which were washed and stored in fresh and filtered modified Barth's solution composed of 88 mM NaCl, 1 mM KCl, 2.4 mM NaHCO3, 20 mM HEPES, 0.82 mM MgSO4, 0.33 mM Ca(NO3)2, 0.41 mM CaCl2, 5 mM sodium pyruvate, gentamycin, penicillin, streptomycin, and corrected to pH=7.4. All salts and antibiotics were A.C.S. grade (Fisher Scientific, Pittsburgh, Pa.).
Clones used were provided as a gift from Dr. R. A. Harris (University of Texas, Austin) and were sequenced and compared to references in the National Center for Biotechnology Information database to confirm the identity of each gene. GABAA receptors were expressed using clones for the human GABAA α1 and the rat GABAA β2 and γ2s subunits in pCIS-II vectors. […] In separate oocytes, glutamate receptors were expressed using rat NMDA NR1 clones in a pCDNA3 vector and rat NMDA NR2A clones in a Bluescript vector. RNA encoding each subunit was prepared using a commercial transcription kit (T7 mMessage mMachine, Ambion, Austin, Tex.) was mixed in a 1:1 ratio, and 1-10 ng of total RNA was injected into oocytes and studied 1-2 days later.
NMDA Receptor Electrophysiology Studies. […] Briefly, baseline perfusion solutions were the same as for GABAA with the substitution of equimolar BaCl2 for calcium salts and the addition of 0.1 mM EGTA; this constituted barium frog Ringer's solution (BaFR). Agonist solutions for NMDA studies also contained 0.1 mM glutamate (E) and 0.01 mM glycine (G) to constitute a BaFREG solution.
The syringe pump and perfusion chamber apparatus as well as the clamp holding potential and baseline-agonist exposure protocols were identical to that described for the GABAA studies. The same test compounds, concentrations, and preparative methods were used in NMDA voltage clamp studies as in the GABAA voltage clamp studies (Table 2).
Response Calculations and Data Analysis. Modulating drug responses were calculated as the percent of the control (baseline) peak as follows:
[formula] where ID and IB were the peak currents measured during agonist+drug and agonist baseline perfusions, respectively. When present, direct receptor activation by a drug was similarly calculated as a percent of the agonist response. […] A lack of receptor response (cut-off) was defined as a <10% change from baseline current that was statistically indistinguishable from zero using a two-tailed Student t-test.

[2] = target: GABAA (α1β2γ2s) receptors (UniProt P14867+P18508+P63138); test: Oocyte two-electrode voltage clamp, GABAA receptor currents; conditions: for GABAA % Direct Effect: drug response without receptor agonist, percent of control agonist peak, saturated drug, mean ± SEM, 5-6 oocytes; for GABAA Drug Response: saturated drug + agonist
Sequence of GABAA (α1β2γ2s) receptors (P14867 28-456): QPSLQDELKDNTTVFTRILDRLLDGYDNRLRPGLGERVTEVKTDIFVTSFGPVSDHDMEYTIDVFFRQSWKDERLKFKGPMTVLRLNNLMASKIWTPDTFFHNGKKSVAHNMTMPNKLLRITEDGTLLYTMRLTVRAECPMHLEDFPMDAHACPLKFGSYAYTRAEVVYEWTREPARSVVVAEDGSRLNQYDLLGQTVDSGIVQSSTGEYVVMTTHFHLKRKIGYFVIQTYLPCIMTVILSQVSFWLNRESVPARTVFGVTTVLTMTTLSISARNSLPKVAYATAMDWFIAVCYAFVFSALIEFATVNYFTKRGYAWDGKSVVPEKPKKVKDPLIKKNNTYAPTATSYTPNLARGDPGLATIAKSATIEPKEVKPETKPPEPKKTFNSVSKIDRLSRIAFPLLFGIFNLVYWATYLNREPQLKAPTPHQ
Sequence of GABAA (α1β2γ2s) receptors (P63138 25-474 limits assumed): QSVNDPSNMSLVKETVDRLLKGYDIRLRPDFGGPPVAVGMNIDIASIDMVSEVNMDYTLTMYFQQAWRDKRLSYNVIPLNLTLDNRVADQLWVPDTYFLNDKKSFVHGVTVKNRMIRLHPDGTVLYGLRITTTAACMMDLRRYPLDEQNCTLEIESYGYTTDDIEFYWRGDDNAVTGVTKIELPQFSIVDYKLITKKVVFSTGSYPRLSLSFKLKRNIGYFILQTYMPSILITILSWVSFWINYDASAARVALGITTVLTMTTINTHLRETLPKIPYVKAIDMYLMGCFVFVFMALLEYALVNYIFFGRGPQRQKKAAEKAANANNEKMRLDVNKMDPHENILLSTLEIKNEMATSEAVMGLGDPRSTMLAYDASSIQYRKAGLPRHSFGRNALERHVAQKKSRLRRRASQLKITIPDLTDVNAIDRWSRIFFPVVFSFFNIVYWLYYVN
Sequence of GABAA (α1β2γ2s) receptors (P18508 39-466): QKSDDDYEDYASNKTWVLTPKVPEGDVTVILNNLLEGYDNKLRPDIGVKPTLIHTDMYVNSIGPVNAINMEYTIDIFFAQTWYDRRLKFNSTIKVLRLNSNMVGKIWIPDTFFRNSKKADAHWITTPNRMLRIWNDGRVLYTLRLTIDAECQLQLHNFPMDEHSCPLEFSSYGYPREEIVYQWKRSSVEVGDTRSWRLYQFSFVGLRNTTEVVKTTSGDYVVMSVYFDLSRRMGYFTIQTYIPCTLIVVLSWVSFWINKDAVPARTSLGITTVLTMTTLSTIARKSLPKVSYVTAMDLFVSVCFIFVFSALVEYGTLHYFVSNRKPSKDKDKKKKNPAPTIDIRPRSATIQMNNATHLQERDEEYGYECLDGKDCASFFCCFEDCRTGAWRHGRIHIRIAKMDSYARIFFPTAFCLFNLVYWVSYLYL
Experimental: GABAA receptors were expressed using clones for the human GABAA α1 and the rat GABAA β2 and γ2s subunits in pCIS-II vectors. […] These plasmid ratios ensured incorporation of the γ-subunit into expressed receptors, as confirmed via receptor potentiation to 10 μM chlordiazepoxide or insensitivity to 10 μM zinc chloride during co-application with GABA. In separate oocytes, glutamate receptors were expressed using rat NMDA NR1 clones in a pCDNA3 vector and rat NMDA NR2A clones in a Bluescript vector. RNA encoding each subunit was prepared using a commercial transcription kit (T7 mMessage mMachine, Ambion, Austin, Tex.) was mixed in a 1:1 ratio, and 1-10 ng of total RNA was injected into oocytes and studied 1-2 days later.
Oocytes were studied in a 250 μL linear-flow perfusion chamber with solutions administered by syringe pump at 1.5 ml/min with gastight glass syringes and Teflon tubing. Oocyte GABAA currents were studied using standard two-electrode voltage clamping techniques at a holding potential of 80 mV using a 250 μL channel linear-flow perfusion chamber with solutions administered by syringe pump at 1.5 mL/min.
After FR perfusion for 5 min, oocytes were exposed to 30 sec FR-GABA followed by another 5 min FR washout; this was repeated until stable GABAA-elicited peaks were obtained. Next, FR containing a saturated solution of the study drug (Table 2)—or for gaseous study compounds a vapor pressure equal to 90% of barometric pressure with balance oxygen—was used to perfuse the oocyte chamber for 2 min followed by perfusion with a FR-GABA solution containing the identical drug concentration for 30 sec.
[formula] where ID and IB were the peak currents measured during agonist+drug and agonist baseline perfusions, respectively. When present, direct receptor activation by a drug was similarly calculated as a percent of the agonist response. Average current responses for each drug and channel were described by mean±SD. A lack of receptor response (cut-off) was defined as a <10% change from baseline current that was statistically indistinguishable from zero using a two-tailed Student t-test.

| NMDA % Direct Effect [1] | GABAA % Direct Effect [2] | Compound | NMDA Drug Response [1] | GABAA Drug Response [2] | direct effect on NMDA receptors (in words) [1] |
| --- | --- | --- | --- | --- | --- |
| none | none | CCc1cccc(CC)c1 [1,3-diethylbenzene] | 0 (no response (0) for drug+agonist responses that differ by <10% from the control agonist peak) | + (potentiation (+) for drug+agonist responses greater than the control agonist peak) |  |
| none | none | CCCCCCSCC [1-(ethylthio)-hexane] |  | + (potentiation (+) for drug+agonist responses greater than the control agonist peak) |  |
| none | none | CCCCCCCCSCC [1-(ethylthio)-octane] | 0 (no response (0) for drug+agonist responses that differ by <10% from the control agonist peak) | + (potentiation (+) for drug+agonist responses greater than the control agonist peak) |  |
| none | none | CCCCCCCCCCO [1-decanol] |  | + (potentiation (+) for drug+agonist responses greater than the control agonist peak) |  |
| none | none | CCCCCCCCCCCCO [1-dodecanol] | 0 (no response (0) for drug+agonist responses that differ by <10% from the control agonist peak) | + (potentiation (+) for drug+agonist responses greater than the control agonist peak) |  |
| none | none | CCCCCCCCCCCCCCCCCCCCN [1-eicosanamine] | 0 (no response (0) for drug+agonist responses that differ by <10% from the control agonist peak) | + (potentiation (+) for drug+agonist responses greater than the control agonist peak) |  |
| none | none | CCCCCF [1-fluoropentane] |  | + (potentiation (+) for drug+agonist responses greater than the control agonist peak) |  |
| none | none | C#CCCCCC [1-heptyne] |  | + (potentiation (+) for drug+agonist responses greater than the control agonist peak) |  |
| none |  | CCCCCCS [1-hexanethiol] | 0 (no response (0) for drug+agonist responses that differ by <10% from the control agonist peak) | + (potentiation (+) for drug+agonist responses greater than the control agonist peak) |  |
| none |  | C#CCCCC [1-hexyne] |  | + (potentiation (+) for drug+agonist responses greater than the control agonist peak) |  |
|  |  | CN1CCOCC1 [4-methylmorpholine] |  |  | direct activation of NMDA receptors |
|  |  | N-methylpiperadine |  |  | direct activation of NMDA receptors |

| Compound | NMDA % Direct Effect [1] | GABAA % Direct Effect [2] | NMDA Drug Response [1] | GABAA Drug Response [2] | direct effect on NMDA receptors (in words) [1] |
| --- | --- | --- | --- | --- | --- |
| CCCCCCCCF [1-fluoroctane] | none | none | 0 (no response (0) for drug+agonist responses that differ by <10% from the control agonist peak) | + (potentiation (+) for drug+agonist responses greater than the control agonist peak) |  |
| CCCCCCF [1-fluorohexane] | none |  | 0 (no response (0) for drug+agonist responses that differ by <10% from the control agonist peak) | + (potentiation (+) for drug+agonist responses greater than the control agonist peak) |  |
| C=CCCCC [1-hexene] | none | none | 0 (no response (0) for drug+agonist responses that differ by <10% from the control agonist peak) | + (potentiation (+) for drug+agonist responses greater than the control agonist peak) |  |
| CCCCCCCCCCCCCCCCCCN [1-octadecanamine] | none | none |  | + (potentiation (+) for drug+agonist responses greater than the control agonist peak) |  |
